According to patent US11464750B2, “Anticancer agent and use thereof” (priority 2017, dated 2022):

Columns and labels:
Format in all cases: cell-based, human
caspase 3 = test: Western blotting, activated caspase 3, Panc-1 cells; conditions: 3 μM, 12 hours after treatment
Description: Specifically, JeKo-1 cells were cultured for 0 (control), 12, 24, and 48 hours in the presence of 0.5 μM of 3EZ,20Ac-ingenol. In addition. Panc-1 cells were cultured for 0 (control), 12, 24, and 48 hours in the presence of 3 μM of 3EZ,20Ac-ingenol. Subsequently, activation of caspase 3 in the respective cells was detected by Western blotting using an anti-activated-caspase antibody (R & D Systems). Furthermore, as a loading control, actin protein was detected using an anti-actin antibody (Sigma).

PTEN = test: Western blotting, PTEN, BALL-1 cells; conditions: 0.5 μM
Description: (§1) The effect of 3EZ,20Ac-ingenol treatment on PTEN, p-PTEN, and p-Akt of BALL-1 cells was examined. First, BALL-1 cells were cultured for 3, 6, 12, 24, and 48 hours in the presence of 3EZ,20Ac-ingenol at a final concentration of 0.5 μM, and by Western blotting using an anti-PTEN antibody (Santa Cruz), an anti-p-PTEN (Ser^380/Thr^382/383) antibody (Santa Cruz), and an anti-p-Akt (Ser^473) antibody (Cell Signaling Technology), abundances of PTEN, p-PTEN, and p-Akt in the entire cell fraction were analyzed. In addition, cells cultured in the absence of 3EZ,20Ac-ingenol were used as controls.
Subsequently, siRNA against PTEN (“ON-TARGET Plus Human PTEN (5728) siRNA-SMARTpool,” GE Dharmacon) was introduced into BALL-1 cells at a final concentration of 50 nM and incubated for 48 hours. Subsequently, a cell medium was replaced with a new medium and cultured for 12, 24, and 48 hours in the presence or absence of 3EZ,20Ac-ingenol at a final concentration of 0.5 μM, and by Western blotting using an anti-PTEN antibody (Santa Cruz) and an anti-p-Akt (Ser^473) antibody (Cell Signaling Technology), abundances of PTEN protein and p-Akt were analyzed.

p-GSK-3β (Ser^9) [1] = test: Western blotting, p-GSK-3β (Ser9), JeKo-1 cells; conditions: 0.5 μM, entire cell
Description: (§2) Specifically, first, JeKo-1 cells were cultured for 0 (control), 12, 24, and 48 hours in the presence of 0.5 μM of 3EZ,20Ac-ingenol. In addition, Panc-1 cells were cultured for 0 (control), 12, 24, and 48 hours in the presence of 3 μM of 3EZ,20Ac-ingenol.
(§3) Subsequently, abundances of GSK-3β and p-GSK-3β in the respective cells were analyzed by Western blotting using an anti-GSK-3β antibody (Cell Signaling Technology) and an anti-p-GSK-3β (Ser^9) antibody (Cell Signaling Technology). Furthermore, as a loading control, actin protein was detected using an anti-actin antibody (Sigma).

GSK-3β = test: Western blotting, GSK-3β, JeKo-1 cells; conditions: 0.5 μM, entire cell, 24 hours
Description: as §2, §3

[2] = system: p-PTEN (Ser^380/Thr^382/383); test: Western blotting, p-PTEN, BALL-1 cells; conditions: 0.5 μM, 3 to 48 hours, entire cell fraction
Description: as §1

BALL-1 cells [3] = test: Cell Death Detection ELISA (histone-binding DNA fragmentation), BALL-1; conditions: 0.5 μM, 72 hours
Description: (§4) The induction of apoptosis by 3EZ,20Ac-ingenol treatment was examined by detecting histone-binding DNA fragmentation in the cytoplasm using a Cell Death Detection ELISA kit (Roche Applied Science).
(§5) Specifically, BALL-1 cells, TKG0210 cells, and TKG0377 cells were inserted into tubes at 5×10^4 cells/well/200 μL, and incubated for 6, 12, 24, 48, and 72 hours in the presence of 3EZ,20Ac-ingenol at a final concentration of 0.5 μM. Subsequently, the respective cells were lysed in a lysis buffer. Subsequently, the supernatant of cell debris of the respective cells was collected and transferred to an ELISA plate, and an absorbance at a wavelength of 405 nm was measured to measure the induction of apoptosis.

p53 protein [4] = test: Western blotting, p53 protein, JeKo-1 cells; conditions: 0.5 μM, 12 hours until 48 hours after treatment
Description: (§6) Specifically, JeKo-1 cells were cultured for 0 (control), 12, 24, and 48 hours in the presence of 0.5 μM of 3EZ,20Ac-ingenol. In addition, Panc-1 cells were cultured for 0 (control), 12, 24, and 48 hours in the presence of 3 μM of 3EZ,20Ac-ingenol.
(§7) Subsequently, ATR protein, p53 protein, and phosphorylated p53 (hereinafter also referred to as “p-p53”) protein in the respective cells were respectively detected using an anti-ATR antibody (Cell Signaling Technology), an anti-p53 antibody (Santa Cruz), and an anti-p-p53 antibody (Cell Signaling Technology). Furthermore, as a loading control, actin protein was detected using an anti-actin antibody (Sigma).

p53 protein [5] = test: Western blotting, p53 protein, Panc-1 cells; conditions: 3 μM, 12 hours until 48 hours after treatment
Description: as §6, §7

p-GSK-3β (Ser^9) [6] = test: Western blotting, p-GSK-3β (Ser9), Panc-1 cells; conditions: 3 μM, entire cell
Description: as §2, §3

TKG0210 cells = test: Cell Death Detection ELISA, TKG0210; conditions: 0.5 μM, 72 hours
Description: as §4, §5

BALL-1 cells [7] = test: MTT assay, BALL-1 cells; conditions: 0.01, 0.05, 0.1, 0.5, and 1 μM, 48 hours
Description: BALL-1 cells of a cell line derived from […], TKG0210 cells of a human myeloid leukemia cell line, and TKG0377 cells of a human T cell acute leukemia cell line were seeded in 96-well plates at 2.5×10^4 cells/well/100 μL, and cultured for 48 hours in the presence of 3EZ,20Ac-ingenol at final concentrations of 0 (control), 0.5, 1, 5, and 10 μM. Subsequently, cell proliferation was examined by MTT assay using a Cell Proliferation Kit 1 (Roche Applied Science).
BALL-1 cells were exposed to 3EZ,20Ac-ingenol, 3EE,20Ac-ingenol, 20Ac-ingenol, and ingenol at concentrations of 0.01, 0.05, 0.1, 0.5, and 1 μM for 48 hours. Thereafter, cell proliferation was examined by MTT assay. Cells that were not exposed to the chemical were used as controls. The chemical formulas of 3EZ,20Ac-ingenol, 3EE,20Ac-ingenol, and 20Ac-ingenol are as described above. The chemical formula of ingenol is shown in the following Formula (7).

Q: For `CCCCC/C=C\C=C\C(=O)O[C@H]1C(C)=C[C@]23C(=O)[C@@H](C=C(COC(C)=O)[C@@H](O)[C@]12O)[C@H]1[C@@H](C[C@H]3C)C1(C)C` [3EZ,20Ac-ingenol, 3-O-(2′E,4′Z-decadienoyl)-20-O-acetylingenol], which “activation of caspase 3” value (caspase 3) is on record?
A: The value was “activation of caspase 3 was observed”.

Q: What about the “abundance of PTEN” value (PTEN; 3 to 48 hours, entire cell fraction) of the same compound?
A: Its value is “an increase in abundance of PTEN”.

Q: What about the “expression level of PTEN” value (PTEN; cells with siRNA against PTEN introduced, 12 hours, further increased 24 and 48 hours) of the same compound?
A: Its value is “an increase in expression level of PTEN was observed”.

Q: And the “p-GSK-3β (an inactive type)” value (p-GSK-3β (Ser^9) [1])?
A: The value was “a decrease in p-GSK-3β (an inactive type) was observed”.

Q: And the “GSK-3β (an active type)” value (GSK-3β)?
A: Its value is “an increase in GSK-3β was observed”.

Q: And the “abundance of p-PTEN” value [2]?
A: The value was “an abundance of p-PTEN increased”.

Q: What about the “amount of fragmented DNA (apoptosis)” value (BALL-1 cells [3]) of the same compound?
A: Its value is “noticeably increased the amount of fragmented DNA”.

Q: What about the “expression level of p53 protein” value (p53 protein [4]) of the same compound?
A: Its value is “an increase in expression level of p53 protein was recognized”.

Q: And the “expression level of p53 protein” value (p53 protein [5])?
A: The value was “an increase in expression level of p53 protein was recognized”.

Q: And the “p-GSK-3β (an inactive type)” value (p-GSK-3β (Ser^9) [6])?
A: The value was “a decrease in p-GSK-3β (an inactive type) was observed”.

Q: What about the “amount of fragmented DNA (apoptosis)” value (TKG0210 cells) of the same compound?
A: The value was “almost no fragmented DNA was detected”.

Q: What about the “inhibition of proliferation of the BALL-1 cells” value (BALL-1 cells [7]) of the same compound?
A: The value was “a significant level of inhibition of proliferation”.
